In the assay the target is T1, DCAF1 (1058-1396) (Homo sapiens, UniProt Q9Y4B6).
T1 construct: a fragment of a DCAF1 protein that includes amino acid residues A1058 to E1396; His6 (N, cleaved yes); made in house; host or cells: Sf9 insect cells (Bac-to-Bac baculovirus, pFastBacHT vector)
T1 sequence (Q9Y4B6 1058-1396): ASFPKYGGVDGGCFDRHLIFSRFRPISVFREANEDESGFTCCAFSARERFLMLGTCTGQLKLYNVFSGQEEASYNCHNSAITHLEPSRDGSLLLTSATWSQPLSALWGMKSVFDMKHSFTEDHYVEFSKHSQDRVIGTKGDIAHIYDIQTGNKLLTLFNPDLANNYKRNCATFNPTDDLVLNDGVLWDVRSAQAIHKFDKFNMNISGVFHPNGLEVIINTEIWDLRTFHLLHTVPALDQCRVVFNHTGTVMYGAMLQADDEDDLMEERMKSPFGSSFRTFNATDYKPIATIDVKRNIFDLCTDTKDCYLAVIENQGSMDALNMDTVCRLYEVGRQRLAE
Put plainly: Surface plasmon resonance (SPR) binding assay, compound binding to DCAF1. Particulars: immobilized DCAF1 (1058-1396), steady state affinity model, 25° C. The procedure: Binding affinities of specific exemplary compounds to DCAF1 (1058-1396), which is a fragment of a DCAF1 protein that includes amino acid residues A1058 to E1396 were determined by a surface plasmon resonance (SPR) assay. Briefly, purified DCAF1 (1058-1396) proteins were immobilized at a density of 9,000-11,000 resonance units (RUs) on a CMS sensor chip. Sensorgrams were recorded at different concentrations of compounds in multi-cycle kinetic format. Data were analyzed using a steady state affinity model through Biacore Evaluation Software to provide equivalent dissociation constants (Kd).
Binding affinities of compounds to DCAF1 were determined by a surface plasmon resonance (SPR) assay. Purified DCAF1 (1058-1396) proteins were immobilized on a CMS sensor chip, and a dose range of compound solutions were injected in multi-cycle kinetic format. Data were analyzed using a steady state model to provide equivalent dissociation constants (Kd).
Protein Expression and Purification: Human DCAF1 (1058-1396) (UniPro: Q9Y4B6) coding sequences were cloned into pFastBacHT vector and were expressed in Sf9 cells using Bac-to-Bac baculovirus expression system (Thermo Fisher Scientific). The expression construct for DCAF1 (1058-1396) included a N-terminal His6-tag to facilitate the purification. DCAF1 (1058-1396) proteins were obtained from supernatants of cell lysates and purified through sequential application of Ni affinity chromatography (Ni-NTA column, Bio-Rad), Tag removal using TEV protease, and size-exclusion chromatography (Superdex 200 column, GE Healthcare).
Surface plasmon resonance (SPR) binding assays: SPR studies were performed on a Biacore X100 plus or T200 instrument (GE Healthcare). Immobilization of purified DCAF1 (1058-1396) was carried out at 25° C. using a CMS sensor chip. The surface was pre-equilibrated in HBS-EP running buffer (10 mM HEPES, pH 7.4, 150 mM NaCl, 3 mM EDTA, 0.05% P20), before being activated with EDC/NHS. DCAF1 (1058-1396) was immobilized through amino groups to a density of 9,000-12,000 resonance units (RUs) on flow cell channel 2 (FC2), whereas flow cell channel 1 (FC1) was used as reference. Both DCAF1 immobilized and reference surfaces were deactivated with 1 M ethanolamine.
Interaction experiments were performed at 25° C. The compounds were prepared and serially diluted in HBS-EP running buffer containing final 2% DMSO (6-point two-fold serial dilution, 100 μM -3.125 μM final concentration of compounds). Compound Solutions were injected individually in multi-cycle kinetic format without regeneration (flow rate 30 μL/min, association time 60 s, dissociation time 60 s). Sensorgrams from reference surfaces and blank injections were subtracted from the raw data (double-referenced) and the data was solvent-corrected prior to analysis. Data were analyzed using a steady state affinity model through Biacore Evaluation Software to provide equivalent dissociation constants (Kd).
(In SPR one partner is held on a chip, and binding of the other changes the refractive index at the surface.)
As a reminder, the Kd is a measure of binding affinity in units of concentration. `Cc1ccc2c(c1)[C@@H]1CN(C)CC[C@H]1N2` (racemic) [CPD-032, trans-2,8-dimethyl-2,3,4,4a,5,9b-hexahydro-1H-pyrido [4,3-b]indole] yielded a Kd greater than 100 µM. The same measure for `Cc1ccc2c(c1)[C@H]1CN(C)CC[C@H]1N2` (racemic) [CPD-033, cis-2,8-dimethyl-2,3,4,4a,5,9b-hexahydro-1H-pyrido[4,3-b]indole]: greater than 100 µM; for `Cc1ccc2c(c1)[C@@H]1CN(C)CC[C@H]1N2C` (racemic) [CPD-034, trans-2,5,8-trimethyl-2,3,4,4a,5,9b-hexahydro-1H-pyrido[4,3-b]indole]: greater than 100 µM. The value for `Cc1ccc2c(c1)[C@@H]1CN(C)CC[C@H]1N2C(=O)/C=C/c1nccs1` (racemic) [CPD-035, (E)-1-(trans-2,8-dimethyl-1,2,3,4,4a,9b-hexahydro-5H-pyrido [4,3-b]indol-5-yl)-3-(thiazol-2-yl)prop-2-en-1-one] was greater than 100 µM; that for `Cc1ccc2c(c1)[C@H]1CN(C)CC[C@H]1N2C` (racemic) [CPD-036, cis-2,5,8-trimethyl-2,3,4,4a,5,9b-hexahydro-1H-pyrido [4,3-b]indole] was greater than 100 µM. The value for `Cc1ccc2c(c1)[C@H]1CN(C)CC[C@H]1N2C(=O)/C=C/c1nccs1` (racemic) [CPD-037, (E)-1-(cis-2,8-dimethyl-1,2,3,4,4a,9b-hexahydro-5H-pyrido [4,3-b]indol-5-yl)-3-(thiazol-2-yl)prop-2-en-1-one] was greater than 100 µM.

On to `Cc1cccc2c1[C@@H]1CN(C)CC[C@H]1N2` (racemic) [CPD-039, trans-2,9-dimethyl-2,3,4,4a,5,9b-hexahydro-1H-pyrido [4,3-b]indole], for which the equilibrium dissociation constant (Kd) was greater than 100 µM. Compound `Cc1cccc2c1[C@@H]1CN(C)CC[C@H]1N2C` (racemic) [CPD-040, trans-2,5,9-trimethyl-2,3,4,4a,5,9b-hexahydro-1H-pyrido[4,3-b]indole] yielded a Kd greater than 100 µM.

In turn, `Cc1cccc2c1[C@H]1CN(C)CC[C@H]1N2` (racemic) [CPD-041, cis-2,9-dimethyl-2,3,4,4a,5,9b-hexahydro-1H-pyrido[4,3-b]indole] displayed a Kd greater than 100 µM. The same measure for `Cc1cccc2c1[C@H]1CN(C)CC[C@H]1N2C` (racemic) [CPD-042, cis-2,5,9-trimethyl-2,3,4,4a,5,9b-hexahydro-1H-pyrido[4,3-b]indole]: greater than 100 µM; for `Cn1cccc1CNCc1ccncc1` [CPD-001, 1-(1-methyl-1H-pyrrol-2-yl)-N-(pyridin-4-ylmethyl)methanamine]: 40 to 70 µM; for `Cn1cccc1CNCc1cccnc1` [CPD-002, 1-(1-methyl-1H-pyrrol-2-yl)-N-(pyridin-3-ylmethyl)methanamine]: greater than 100 µM. The value for `Cn1cccc1CNCc1ccccn1` [CPD-003, 1-(1-methyl-1H-pyrrol-2-yl)-N-(pyridin-2-ylmethyl)methanamine] was greater than 100 µM; that for `NCCCCCCn1cccc1C(=O)NCc1ccncc1` [CPD-004, 1-(6-aminohexyl)-N-(pyridin-4-ylmethyl)-1H-pyrrole-2-carboxamide] was 40 to 70 µM; that for `NCCCCCCn1cccc1CNCc1ccncc1` [CPD-005, 6-(2-(((pyridin-4-ylmethyl)amino)methyl)-1H-pyrrol-1-yl)hexan-1-amine] was 40 to 70 µM.

`NCCOCCOCCOCCn1cccc1CNCc1ccncc1` [CPD-006, 2-(2-(2-(2-(2-(((pyridin-4-ylmethyl)amino)methyl)-1H-pyrrol-1-yl)ethoxy)ethoxy)ethoxy)ethan-1-amine] returned a Kd of 40 to 70 µM.

In the case of `CN1Cc2ccccc2CC1CNc1ncccc1F` (centres unmarked) [CPD-007, 3-fluoro-N-((2-methyl-1,2,3,4-tetrahydroisoquinolin-3-yl)methyl)pyridin-2-amine], the Kd was greater than 100 µM.

With `Clc1ccc2[nH]c3c(c2c1)CN(CCc1cnn[nH]1)CC3` [CPD-008, 2-(2-(1H-1,2,3-triazol-5-yl)ethyl)-8-chloro-2,3,4,5-tetrahydro-1H-pyrido[4,3-b]indole], the Kd lay in the range of 40 to 70 µM. The same measure for `CC(C)c1ccc2[nH]c3c(c2c1)CN(CCc1cnn[nH]1)CC3` [CPD-009, 2-(2-(1H-1,2,3-triazol-5-yl)ethyl)-8-isopropyl-2,3,4,5-tetrahydro-1H-pyrido[4,3-b]indole]: 40 to 70 µM; for `CC(C)N1CCc2c(c3ccccc3n2CC(=O)O)C1` [CPD-010, 2-(2-isopropyl-1,2,3,4-tetrahydro-5H-pyrido[4,3-b]indol-5-yl)acetic acid]: greater than 100 µM. The value for `CC(C)(C)c1ccc2[nH]c3c(c2c1)CN(CCc1cnn[nH]1)CC3` [CPD-011, 2-(2-(1H-1,2,3-triazol-5-yl)ethyl)-8-(tert-butyl)-2,3,4,5-tetrahydro-1H-pyrido[4,3-b]indole] was 40 to 70 µM; that for `Fc1ccc2[nH]c3c(c2c1)CN(CCc1cnn[nH]1)CC3` [CPD-012, 2-(2-(1H-1,2,3-triazol-5-yl)ethyl)-8-fluoro-2,3,4,5-tetrahydro-1H-pyrido[4,3-b]indole] was no more than 40 µM; that for `Cc1ccc2[nH]c3c(c2c1)CN(CCc1cnn[nH]1)CC3` [CPD-013, 2-(2-(1H-1,2,3-triazol-5-yl)ethyl)-8-methyl-2,3,4,5-tetrahydro-1H-pyrido[4,3-b]indole] was 40 to 70 µM. The value for `NCCCCCCn1c2c(c3cc(F)ccc31)CN(CCc1cnn[nH]1)CC2` [CPD-014, 6-(2-(2-(1H-1,2,3-triazol-5-yl)ethyl)-8-fluoro-1,2,3,4-tetrahydro-5H-pyrido[4,3-b]indol-5-yl)hexan-1-amine] was 40 to 70 µM. Compound `CN1Cc2ccccc2CC1CNC(=O)c1cncc(O)n1` (centres unmarked) [CPD-015, 6-hydroxy-N-((2-methyl-1,2,3,4-tetrahydroisoquinolin-3-yl)methyl)pyrazine-2-carboxamide] gave a Kd greater than 100 µM. With `NCCOCCOCCOCCn1c2c(c3cc(F)ccc31)CN(CCc1cnn[nH]1)CC2` [CPD-016, 2-(2-(2-(2-(2-(2-(1H-1,2,3-triazol-5-yl)ethyl)-8-fluoro-1,2,3,4-tetrahydro-5H-pyrido[4,3-b]indol-5-yl)ethoxy)ethoxy)ethoxy)ethan-1-amine], the equilibrium dissociation constant (Kd) lay in the range of 40 to 70 µM.

For `CN1Cc2cc(NCCOCCOCCOCCN)ccc2CC1CNc1ncccc1F` (centres unmarked) [CPD-017, N-(2-(2-(2-(2-aminoethoxy)ethoxy)ethoxy)ethyl)-3-(((3-fluoropyridin-2-yl)amino)methyl)-2-methyl-1,2,3,4-tetrahydroisoquinolin-7-amine], the equilibrium dissociation constant (Kd) lay within 40 to 70 µM. The value for `CN1Cc2cc(NCCCCCCN)ccc2CC1CNc1ncccc1F` (centres unmarked) [CPD-018, N1-(3-(((3-fluoropyridin-2-yl)amino)methyl)-2-methyl-1,2,3,4-tetrahydroisoquinolin-7-yl)hexane-1,6-diamine] was 40 to 70 µM; that for `Cc1ccc2[nH]c3c(c2c1)CN(C)CC3` [CPD-019, 2,8-dimethyl-2,3,4,5-tetrahydro-1H-pyrido[4,3-b]indole] was 40 to 70 µM; that for `Cc1ccc2c(c1)c1c(n2C)CC[N+](C)(C)C1` [CPD-020, 2,2,5,8-tetramethyl-2,3,4,5-tetrahydro-1H-2λ^4-pyrido[4,3-b]indol-3-ylium] was greater than 100 µM. Turning to `Cc1ccc2[nH]c3c(c2c1)C[N+](C)(C)CC3` [CPD-021, 2,2,8-trimethyl-2,3,4,5-tetrahydro-1H-2λ^4-pyrido[4,3-b]indol-3-ylium], the Kd was greater than 100 µM.

In turn, `Cc1ccc2c(c1)c1c(n2C)CCN(C)C1` [CPD-022, 2,5,8-trimethyl-2,3,4,5-tetrahydro-1H-pyrido[4,3-b]indole] displayed a Kd greater than 100 µM. The same measure for `COC(=O)NCCN1CCc2ccccc2C1` [CPD-023, methyl (2-(3,4-dihydroisoquinolin-2(1H)-yl)ethyl)carbamate]: 70 to 100 µM. In turn, `Cc1ccc(CNCc2cnc[nH]2)o1` [CPD-024, N-((1H-imidazol-5-yl)methyl)-1-(5-methylfuran-2-yl) methanamine] returned a Kd greater than 100 µM. Regarding `COc1cc(CNCc2cnc[nH]2)ccn1` [CPD-025, N-((1H-imidazol-5-yl)methyl)-1-(2-methoxypyridin-4-yl) methanamine], the Kd is greater than 100 µM.
